Here are results for 8 molecules from patent US20020129385A1, “MEDTHODS FOR IMPROVING LONG-TERM MEMORY STORAGE AND RETRIEVAL” (priority 1998, published 2002).

Assay [1] concerns calcineurin. The assay can be described thus: Phosphatase assay in hippocampal extracts of rTet-CN279 mice. To be noted: extracts from control and mutant mice not treated or treated with doxycycline. Type of assay: biochemical, mouse. The method, then:
Phosphatase assays were performed as described in Winder et al., 1998. Briefly, hippocampal extracts from rTet-CN279 adult mice were prepared in 2 mM EDTA (pH 8), 250 mM sucrose, 0.1% b-mercaptoethanol. Supernatants were incubated at 30° C. for 1 min in the presence of […] [[…]]-RII peptide and either 0.1 mM calmodulin and 0.66 mM Ca^2( or 0.33 mM EGTA. The enzyme activity was expressed in nmol Pi released/min/mg protein.

Assay [2] deals with calcineurin. The assay can be described thus: Phosphatase assay in hippocampal extracts of Tet-CN279 and Tet-CN273 mice. Type of assay: biochemical, mouse. Here is the method:
Phosphatase assays were performed as described in Winder et al., 1998. Briefly, mice were injected with 5 ml/kg of pentobarbital and decapitated. Hippocampi were dissected out, homogenized in 2 mM EDTA (pH 8), 250 mM sucrose, 0.1% β-mercaptoethanol. Supernatants were incubated at 30° C. for 1 min in presence of the […] [[…]]-RII peptide and either 0.1 mM calmodulin and 0.66 mM Ca^2+ or 0.33 mM EGTA. The reaction was stopped and the enzyme activity calculated previously as described (Klee et al., 1983; 1987). The activity was expressed in nmol Pi released/min/mg protein. The protein concentration was determined using the bicinchroninic acid protein assay kit (SIGMA®). All samples were performed in triplicate.

Assay [3] relates to calcineurin. The assay can be described thus: Phosphatase assay in hippocampal extracts of CN98 mice. Type of assay: biochemical, mouse. To be noted: CN98 mutant and wild-type hippocampal extracts. Here is the method:
Phosphatase assays were performed according to Hubbard and Klee (1991). Briefly, mice were injected with 5 ml/kg of pentobarbital and decapitated. Hippocampi were homogenized in 2 mM EDTA (pH 8), 250 mM sucrose, 0.1% β-mercaptoethanol and centrifuged. Supernatants were diluted in 40 mM Tris-HCl (pH 8), 0.1 M NaCl, 0.4 mg/ml bovine serum albumin, 1 mM DTT, […] okadaic acid (Buffer 1) and incubated at 30° C. for 1 min in Buffer 1 containing […] of the peptide [γ^32p]-RII subunit of cyclic AMP-dependent protein kinase (PKA) and either 0.1 mM calmodulin (SIGMA®) and 0.66 mM Ca^2( or 0.33 mM EGTA (pH 7.5). The peptide [Ala^97]-RII (Peninsula Labs) was labeled with 0.3 mM [γ^32p] ATP (NEN®) using […] catalytic subunit of PKA (FLUKA®). The reaction was stopped with 5% TCA in 0.1 M KH2PO4 and the enzyme activity was calculated as previously described (Klee et al., 1983) and is expressed in nmol Pi released/min/mg protein. The protein concentration was determined using the bicinchroninic acid protein assay kit (SIGMA®). All samples were performed in triplicate.

A further assay deals with NMDA receptors. As to the kind of experiment: NMDA-mediated synaptic potentials in hippocampal slices (DNQX, reduced Mg2+). Type of assay: cell-based, mouse. The conditions noted are these: 50 (M DL-AP5); 10 (M DNQX, Mg2+ 50 μM). Here is the method: (§1) Transverse hippocampal slices were prepared as previously described (Abel et al., 1997). Mice of either sex, aged 7-18 weeks were used. Where appropriate, the experimenter was blind to animal genotype. […] For extracellular recordings, ACSF-filled glass electrodes (1-3 MW) were positioned in the stratum radiatum of area CA1. A bipolar nichrome stimulating electrode was also placed in stratum radiatum for stimulation of Schaffer collateral afferents (0.05 ms duration). Unless otherwise mentioned, test stimuli were applied at a frequency of 1 per minute (0.017 Hz), and at a stimulus intensity that elicits a fEPSP slope that was 35% of the maximum. Experiments in which changes in the fiber volley occurred, were discarded. Drugs were applied through the perfusion medium. DL-AP5, calyculin A, KT5720 and R(+)-6-Bromo-7,8-dihydroxy-3-allyl-1-phenyl-2,3,5-tetrahydro-1H-3-benzazepine (6-Br-APB) were purchased from Research Biochemicals International, Natick, Mass.

The test system of assay [4] is SC-CA1 synapse. As to the kind of experiment: LTP induced by two 100 Hz trains in hippocampal slices in the presence of drugs. The assay is classed as cell-based, mouse. Set-up: Sensitivity of LTP elicited by two trains to preincubation with the drug: dose or concentration left out as unconfirmed. Here is the method: as §1
Assay [5] concerns SC-CA1 synapse. As to the kind of experiment: LTP induced by four 100 Hz trains in hippocampal slices in the presence of drugs. The assay is classed as cell-based, mouse. The conditions noted are these: wild-type slices; KT5720, 20 minute pretreatment; anisomycin 30 μM one hour. The method, then: as §1
Assay [6] relates to Schaffer collateral CA1 pathway. The assay can be described thus: LTP induced by two 100 Hz trains (I-LTP) in slices of rTet-CN279 mice treated with doxycycline (rtTA system). Type of assay: cell-based, mouse. The conditions noted are these: ACSF 6 ng doxycycline/ml. Here is the method:
Recordings were performed as described in Winder et al., (1998). […] Test stimuli were applied at a frequency of 1 per min at an intensity that elicits an EPSP with a slope of […] of maximum. Slices from mice treated with doxycycline were incubated in ACSF containing doxycycline (6 ng/ml) for 2-3 hours before the tetanus was applied and subfused with doxycycline solution throughout the recordings.

Assay [7] concerns SC-CA1 synapse. The assay can be described thus: LTP induced by two trains in slices of Tet-CN279 mice on or off doxycycline (tTA system). The assay is classed as cell-based, mouse. The method, then: as §1
The transgenic mice CN279 and CN273 were generated by microinjection of the linear construct as previously described (Hogan et al., 1994; Winder et al., 1998). Analysis of founder mice for integration of the transgene was performed by Southern blotting and PCR. The founder mice were backcrossed to C57BL6 F1/J mice to generate the transgenic lines CN279 and CN273. […]

For assay [8], the system named is SC-CA1 synapse. As to the kind of experiment: Chemically-induced slow-onset potentiation (L-LTP), fEPSP recording in hippocampal slices. Type of assay: cell-based, mouse. More on the design: dose or concentration left out as unconfirmed. The method, then: as §1
The test system of assay [9] is protein synthesis in area CA1. The conditions noted are these: 30 μM; Stanton and Sarvey, 1984; Osten et al., 1996; cited from earlier work.

Consider `O=C(O)CN(CCOCCOCCN(CC(=O)O)CC(=O)O)CC(=O)O` [EGTA], for which the “Phosphatase activity in the presence of the Ca2+ chelator” value in the assay on calcineurin [1] is recorded as “blocked”. Also, the Phosphatase activity was 0.287±0.17 nmol Pi/min/mg in the assay with calcineurin [2] (mutant (Tet-CN279+Tet-CN273)+EGTA) and 0.432±0.11 nmol Pi/min/mg in the assay on calcineurin [2] (wild-type (Tet-CN279+Tet-CN273)+EGTA). Moreover, the “Phosphatase activity in the presence of the calcium chelator” value in the assay on calcineurin [3] was “virtually abolished”.
With `NC(CCCP(=O)(O)O)C(=O)O` (racemic) [DL-AP5], in the assay with NMDA receptors, the “NMDA-mediated field potentials in the presence of the drug” value was “abolished”.
Regarding `CCCCCCOC(=O)[C@]1(O)C[C@@H]2O[C@@]1(C)n1c3ccccc3c3c4c(c5c6ccccc6n2c5c31)C(=O)NC4` [KT5720], the “LTP elicited by two trains, % of baseline at 1 hr” value in the assay with SC-CA1 synapse [4] (wild-type slices, KT5720, no drug 206±23%) was 153±5 % of baseline. For the same molecule, the “Decay of LTP induced by four 100 Hz trains, compared with anisomycin” value in the assay on SC-CA1 synapse [5] is on record as “much more rapid decay of LTP”.
Regarding `C[C@H]1c2cccc(O)c2C(=O)C2=C(O)[C@]3(O)C(=O)C(C(N)=O)=C(O)[C@@H](N(C)C)[C@@H]3[C@@H](O)[C@@H]21` [doxycycline], the “LTP induced by two 100 Hz trains (I-LTP), % of baseline at 1 hour” value in [6] (rTet-CN279 Control dox) was 195±9 % of baseline; in [6] (rTet-CN279 Mutant dox), 141±8 % of baseline. Besides, the “LTP induced by two trains, % of baseline at 1 hr” value with SC-CA1 synapse [7] (Tet-CN279 Wt on doxycycline (1 mg/ml water, 1 ng/ml ACSF)) is 191±18 % of baseline; in the assay with SC-CA1 synapse [7] (Tet-CN279 mutant on doxycycline (1 mg/ml water, 1 ng/ml ACSF)), 184±18 % of baseline.
With `Nc1ncnc2c1ncn2[C@@H]1O[C@@H]2COP(O)(=S)O[C@H]2[C@H]1O` (stereo partly drawn) [Sp-cAMPS], the “fEPSP slope, % of baseline at 3 hr after drug application” value was 122±17 % of baseline with SC-CA1 synapse [8] (CN98 mutant slices) and 124±13 % of baseline with SC-CA1 synapse [8] (wild-type slices).
Consider `COc1ccc(C[C@H]2NC[C@H](O)[C@H]2OC(C)=O)cc1` [anisomycin], for which the “Sensitivity of LTP elicited by two trains to preincubation with the drug” value with SC-CA1 synapse [4] (wild-type slices, anisomycin (FIG. 4C)) is on record as “completely insensitive”. Moreover, the “Effect on protein synthesis in area CA1” value in assay [9] is “completely block protein synthesis”.
Turning to `C=CCN1CCc2c(cc(O)c(O)c2Br)[C@@H](c2ccccc2)C1` [6-Br-APB, R(+)-6-Bromo-7,8-dihydroxy-3-allyl-1-phenyl-2,3,5-tetrahydro-1H-3-benzazepine], the “fEPSP slope, % of baseline at 3 hr after drug application” value is listed as 181±41 % of baseline with SC-CA1 synapse [8] (CN98 mutant slices) and 204±40 % of baseline in the assay with SC-CA1 synapse [8] (wild-type slices).
Regarding `COC[C@@H]([C@H](O)[C@H](O)C(=O)NCC[C@H](C)c1nc(/C=C/C[C@@H]2O[C@]3(C[C@@H](O)[C@@H]2C)O[C@H]([C@H](C[C@H](O)[C@H](C)[C@H](O)[C@H](C)/C=C(C)/C(C)=C/C=C/C(C)=C\C#N)OC)[C@H](OP(=O)(O)O)C3(C)C)co1)N(C)C` [calyculin A], the “LTP induced with two 100 Hz trains after drug pretreatment, mutant versus wild-type” value with SC-CA1 synapse [4] (Tet-CN279 mutant slices, 750 nM, 30 minutes pretreatment) was “indistinguishable from that seen in wild-type”.
